Assay results: patent US10556898B2, “Indazolyl-1,2,4-thiadiazolamines and related compounds for inhibition of Rho-associated protein kinase and the treatment of disease” (Lycera Corporation, priority 2016, dated 2020)
Where two headings read alike, the source gives them in different places.

How the values were obtained:
[1] = molecular target: T1, GST-tagged human ROCK1 catalytic domain 1-477 (Homo sapiens, UniProt Q13464); assay: Isolated Enzyme Assay, ROCK1 (LANCE Ultra ULight-CREBtide FRET); type: biochemical; conditions: 30 μM highest concentration tested, read-out: Results from Isolated Enzyme Assay IC50 (μM) ROCK1
T1 construct: human ROCK1 catalytic domain 1-477 from Carna Biosciences (cat #01-109); purchased Carna Biosciences 01-109; host or cells: baculovirus expression system
Procedure: (§1) Exemplary compounds were tested for ability to inhibit Rho-associated protein kinase isoform 1 (ROCK1) and Rho-associated protein kinase isoform 2 (ROCK2). Assay procedures and results are described below.
(§2) Part I—Procedure for Determining ROCK Inhibition Ability of Test Compounds Using an Isolated Enzyme Assay
(§3) Protein constructs were purified from a baculovirus expression system. The peptide substrate was fluorescent LANCE® Ultra ULight-CREBtide: […] (PerkinElmer, # TRF0107-D). Kinase reactions were carried out in a 10 μL volume in 384-well plates: 50 nM ULight-CREBtide substrate, 2 nM constitutively active ROCK1 or ROCK2 kinase, and test compound in DMSO (or DMSO only for controls) were diluted into assay buffer containing 50 mM Tris-HCl (pH=7.5), 10 mM MgCl2, 1 mM EGTA, 0.01% Tween-20, and 2 mM DTT such that the final concentration of DMSO was 0.5%. After a 90 minute incubation at room temperature on a shaker table, the kinase reaction was stopped by addition of 10 mM EDTA, and phosphorylation of the substrate was detected by adding 1 nM LANCE® Ultra Europium-anti-phospho-CREB (ser133) antibody (PerkinElmer, # TRF0200-D) and incubating for 60 minutes on a shaker at room temperature. The fluorescence resonance energy transfer (FRET) signals were read and analyzed on an Envision™ 2103 Multilabel Reader (Perkin Elmer). The concentration of test compound required to inhibit substrate phosphorylation by 50% (the IC50) was calculated by non-linear regression using GraphPad PRIZM.

[2] = molecular target: T2, ROCK2 (Homo sapiens, UniProt O75116); assay: Cell-Based Assay, ROCK2 (HAP1 knockout cells, phospho-MYPT1 Thr853 ELISA); conditions: read-out: Results from Cell-Based Assay IC50 (μM) ROCK2
T2 construct: endogenous in cells; host or cells: HAP1 knockout cells
Procedure: (§4) Part II—Procedure for Determining ROCK Inhibition Ability of Test Compounds Using a Cell-Base Assay
(§5) The Cell-Based Assay for determining ROCK inhibition ability of test compounds utilized a genetically modified HAP1 cell line engineered to eliminate expression of either ROCK1 or ROCK2. In the procedure, HAP1 knockout cells are grown in Iscove's Modified Dulbecco's Medium that is additionally supplemented with 10% fetal bovine and 1x antibiotic-antimycotic mixture. Cells are plated in 96 well tissue culture plates at 1×10^5 cells/well (100 μL, of cells at 1×10^6/mL). Test compounds are solubilized in DMSO and diluted into the same media used to grow the cells. A 100 μL, aliquot of each compound dilution in media is added to each well containing the HAP1 cells and incubated at 37° C. for 30 minutes. Following compound incubation, the cells are pelleted by centrifugation at 1800 rpm for 5 minutes at 4° C. Media is removed from the cell pellet and the cells lysed and de-salted. An 80 μL, aliquot of each cell lysate is added to a single well of a 96-well high binding ELISA plate which has been pre-coated with a MYPT1 capture antibody and incubated at 4° C. overnight. The following day the ELISA plate is washed 4× with 0.05% Tween-20 in PBS. After washing, an anti-phospho-MYPT1 (Thr853) antibody is added and allowed to bind for 1 hour at room temperature. The wash step is repeated, and then an anti-rabbit HRP detection antibody is added and allowed to incubate at room temperature for 1 hour. The wash step is then repeated and 100 μL/well 1-Step™ Ultra TMB substrate is added to the ELISA plate and allowed to develop for approximately 5 minutes. The reaction is stopped by addition of H2SO4. Absorbance is read at 450 OD. Data is analyzed using GraphPad Prism software to calculate the 50% inhibitory concentration of test compound (IC50).

[3] = molecular target: T3, GST-tagged human ROCK2 catalytic domain 1-553 (Homo sapiens, UniProt O75116); assay: Isolated Enzyme Assay, ROCK2 (LANCE Ultra ULight-CREBtide FRET); type: biochemical; conditions: 30 μM highest concentration tested, read-out: Results from Isolated Enzyme Assay IC50 (μM) ROCK2
T3 construct: GST-tagged human ROCK2 catalytic domain 1-553 from Carna Biosciences (Cat #01-110); purchased Carna Biosciences 01-110; host or cells: baculovirus expression system
Procedure: as §1, §2, §3

[4] = molecular target: T4, ROCK1 (Homo sapiens, UniProt Q13464); assay: Cell-Based Assay, ROCK1 (HAP1 knockout cells, phospho-MYPT1 Thr853 ELISA); conditions: read-out: Results from Cell-Based Assay IC50 (μM) ROCK1
T4 construct: endogenous in cells; host or cells: HAP1 knockout cells
Procedure: as §4, §5

[5] = phospho-MYPT1, 30 μM highest concentration tested

T4 sequence (Q13464 whole entry): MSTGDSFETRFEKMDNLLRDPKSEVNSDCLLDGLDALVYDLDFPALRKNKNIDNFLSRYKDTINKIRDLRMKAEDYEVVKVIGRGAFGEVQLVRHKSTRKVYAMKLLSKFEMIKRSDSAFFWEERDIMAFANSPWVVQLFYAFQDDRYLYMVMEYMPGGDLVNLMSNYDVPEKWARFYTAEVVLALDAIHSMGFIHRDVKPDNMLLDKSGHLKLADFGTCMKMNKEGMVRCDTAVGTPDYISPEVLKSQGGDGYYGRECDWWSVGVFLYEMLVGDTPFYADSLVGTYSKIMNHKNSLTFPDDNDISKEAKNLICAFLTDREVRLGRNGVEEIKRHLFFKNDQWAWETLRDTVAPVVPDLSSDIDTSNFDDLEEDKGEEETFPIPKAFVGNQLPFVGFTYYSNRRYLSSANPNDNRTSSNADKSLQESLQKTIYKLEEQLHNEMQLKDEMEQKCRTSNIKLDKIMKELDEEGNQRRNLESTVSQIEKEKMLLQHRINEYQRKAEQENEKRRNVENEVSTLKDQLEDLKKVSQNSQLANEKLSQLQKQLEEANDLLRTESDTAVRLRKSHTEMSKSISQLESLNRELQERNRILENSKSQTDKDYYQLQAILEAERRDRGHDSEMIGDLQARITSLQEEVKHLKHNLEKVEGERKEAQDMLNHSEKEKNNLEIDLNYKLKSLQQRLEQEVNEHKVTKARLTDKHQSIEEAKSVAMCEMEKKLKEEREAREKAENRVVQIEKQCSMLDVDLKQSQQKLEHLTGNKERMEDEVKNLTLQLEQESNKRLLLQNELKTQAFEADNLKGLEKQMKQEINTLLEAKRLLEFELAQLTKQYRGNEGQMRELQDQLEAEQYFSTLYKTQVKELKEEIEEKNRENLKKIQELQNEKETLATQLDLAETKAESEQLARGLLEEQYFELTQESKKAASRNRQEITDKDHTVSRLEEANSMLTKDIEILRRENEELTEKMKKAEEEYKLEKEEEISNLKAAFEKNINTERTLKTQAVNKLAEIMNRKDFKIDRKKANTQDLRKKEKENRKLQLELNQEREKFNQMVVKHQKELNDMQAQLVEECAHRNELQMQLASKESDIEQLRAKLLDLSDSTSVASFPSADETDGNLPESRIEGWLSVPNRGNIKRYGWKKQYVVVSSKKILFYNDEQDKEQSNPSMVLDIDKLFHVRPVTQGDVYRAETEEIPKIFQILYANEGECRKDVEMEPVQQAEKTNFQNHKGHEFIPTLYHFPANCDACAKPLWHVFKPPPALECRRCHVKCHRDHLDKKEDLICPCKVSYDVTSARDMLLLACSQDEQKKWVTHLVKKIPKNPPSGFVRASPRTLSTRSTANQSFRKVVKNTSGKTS
T1 sequence (Q13464 1-477): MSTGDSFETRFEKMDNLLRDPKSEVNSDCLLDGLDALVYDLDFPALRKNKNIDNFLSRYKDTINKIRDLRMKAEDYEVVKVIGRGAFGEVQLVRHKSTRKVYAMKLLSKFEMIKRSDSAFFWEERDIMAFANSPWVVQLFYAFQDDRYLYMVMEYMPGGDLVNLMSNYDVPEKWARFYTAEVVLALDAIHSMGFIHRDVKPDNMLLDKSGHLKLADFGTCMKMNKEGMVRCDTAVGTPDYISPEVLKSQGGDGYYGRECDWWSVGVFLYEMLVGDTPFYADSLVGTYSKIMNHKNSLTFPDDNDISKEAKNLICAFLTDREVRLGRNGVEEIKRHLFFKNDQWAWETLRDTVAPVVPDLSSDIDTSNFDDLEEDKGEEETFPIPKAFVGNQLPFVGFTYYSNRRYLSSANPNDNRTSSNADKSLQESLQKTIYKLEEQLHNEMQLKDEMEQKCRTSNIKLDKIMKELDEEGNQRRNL
T3 sequence (O75116 1-553): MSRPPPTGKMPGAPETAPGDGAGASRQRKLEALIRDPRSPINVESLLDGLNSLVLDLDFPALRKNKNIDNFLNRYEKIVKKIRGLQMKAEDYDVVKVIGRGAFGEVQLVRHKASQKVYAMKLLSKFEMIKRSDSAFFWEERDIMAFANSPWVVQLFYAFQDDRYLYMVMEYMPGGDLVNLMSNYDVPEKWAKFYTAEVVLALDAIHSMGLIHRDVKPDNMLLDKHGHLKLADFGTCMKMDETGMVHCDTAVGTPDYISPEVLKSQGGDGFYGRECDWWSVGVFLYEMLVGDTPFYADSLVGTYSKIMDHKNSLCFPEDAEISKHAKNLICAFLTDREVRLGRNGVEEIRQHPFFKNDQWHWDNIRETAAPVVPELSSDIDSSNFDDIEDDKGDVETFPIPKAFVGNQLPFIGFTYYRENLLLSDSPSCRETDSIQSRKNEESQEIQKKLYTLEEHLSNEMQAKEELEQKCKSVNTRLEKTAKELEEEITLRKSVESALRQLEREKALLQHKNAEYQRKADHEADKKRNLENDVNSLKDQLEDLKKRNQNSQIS
T2 sequence (O75116 whole entry): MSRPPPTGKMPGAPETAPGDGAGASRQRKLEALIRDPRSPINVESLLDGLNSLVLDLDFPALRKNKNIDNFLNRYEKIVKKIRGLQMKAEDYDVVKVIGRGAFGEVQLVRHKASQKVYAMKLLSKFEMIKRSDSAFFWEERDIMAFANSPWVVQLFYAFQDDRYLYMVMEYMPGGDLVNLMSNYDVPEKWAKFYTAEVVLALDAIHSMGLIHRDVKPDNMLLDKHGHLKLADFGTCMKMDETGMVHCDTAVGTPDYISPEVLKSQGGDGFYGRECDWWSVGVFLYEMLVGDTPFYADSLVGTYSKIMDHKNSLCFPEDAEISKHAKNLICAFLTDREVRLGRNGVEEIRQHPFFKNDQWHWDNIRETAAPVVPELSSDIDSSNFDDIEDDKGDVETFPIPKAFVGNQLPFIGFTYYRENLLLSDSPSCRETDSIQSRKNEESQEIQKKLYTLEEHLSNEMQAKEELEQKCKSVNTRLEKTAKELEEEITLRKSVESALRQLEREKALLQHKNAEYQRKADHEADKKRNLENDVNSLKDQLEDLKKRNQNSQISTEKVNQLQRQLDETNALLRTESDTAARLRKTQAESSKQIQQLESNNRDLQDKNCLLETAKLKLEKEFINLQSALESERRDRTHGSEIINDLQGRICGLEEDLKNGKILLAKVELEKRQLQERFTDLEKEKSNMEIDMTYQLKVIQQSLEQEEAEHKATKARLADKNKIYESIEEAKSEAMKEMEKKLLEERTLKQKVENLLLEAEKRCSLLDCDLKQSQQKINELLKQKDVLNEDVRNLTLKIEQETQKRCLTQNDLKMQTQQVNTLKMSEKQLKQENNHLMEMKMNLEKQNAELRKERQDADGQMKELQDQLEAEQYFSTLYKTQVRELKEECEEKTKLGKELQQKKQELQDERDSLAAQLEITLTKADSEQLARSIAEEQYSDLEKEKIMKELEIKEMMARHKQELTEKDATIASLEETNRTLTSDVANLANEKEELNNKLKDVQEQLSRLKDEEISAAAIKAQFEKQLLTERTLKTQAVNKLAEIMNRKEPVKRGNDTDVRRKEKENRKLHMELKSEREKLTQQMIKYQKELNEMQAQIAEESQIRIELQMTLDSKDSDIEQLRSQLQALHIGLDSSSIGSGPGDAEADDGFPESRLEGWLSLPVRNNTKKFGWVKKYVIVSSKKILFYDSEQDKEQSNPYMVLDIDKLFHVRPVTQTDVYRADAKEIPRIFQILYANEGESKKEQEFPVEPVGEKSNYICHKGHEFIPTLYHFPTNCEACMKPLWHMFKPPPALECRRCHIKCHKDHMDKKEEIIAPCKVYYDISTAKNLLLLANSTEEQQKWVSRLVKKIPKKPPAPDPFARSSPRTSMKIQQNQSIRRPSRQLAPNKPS

Row | Compound | IC50 ([1]; isolated enzyme assay) [µM] | IC50 ([2]; class symbols) [µM] | IC50 ([3]; isolated enzyme assay) [µM] | IC50 ([4]; numeric bound) [µM] | IC50 ([4]; class symbols) [µM] | IC50 ([2]; numeric bound) [µM] | IC50 ([1]; isolated enzyme) [µM] | IC50 [2, 5] [µM] | IC50 ([3]; isolated enzyme) [µM]
1 | Cc1cc(NC(=O)c2cocn2)cc(-c2nsc(Nc3ccc4[nH]ncc4c3Cl)n2)n1 [IV-19] | < 1 | < 1 | < 1 | > 10 |  |  |  |  | 
2 | Cc1cc(C(=O)Nc2cc(-c3nsc(Nc4ccc5[nH]ncc5c4Cl)n3)ccn2)n(C)n1 [IV-58] | > 30 | < 1 | < 1 | > 10 |  |  |  |  | 
3 | Cn1cnc2c(-c3nsc(Nc4ccc5[nH]ncc5c4Cl)n3)cccc21 [IV-82] | < 1 | < 1 | 1 to 15 |  | 1 to 15 |  |  |  | 
4 | CC(C)(O)CNC(=O)c1cc(-c2nsc(Nc3ccc4[nH]ncc4c3Cl)n2)ccc1F [IV-22] | < 1 | < 1 | < 1 |  | 1 to 15 |  |  |  | 
5 | CCCOC(=O)Nc1cc(-c2nsc(Nc3ccc4[nH]ncc4c3Cl)n2)cn(C)c1=O [IV-5] | < 1 | < 1 | < 1 |  | 1 to 15 |  |  |  | 
6 | COc1ncc(C(=O)Nc2cncc(-c3nsc(Nc4ccc5[nH]ncc5c4Cl)n3)c2)cn1 [IV-8] | > 30 |  | < 1 | > 10 |  | > 10 |  |  | 
7 | O=C(NCC(F)(F)F)c1cccc(-c2nsc(Nc3ccc4[nH]ncc4c3Cl)n2)c1 [IV-81] | < 1 | < 1 | < 1 | > 10 |  |  |  |  | 
8 | O=C(NC1CCOCC1)c1cc(-c2nsc(Nc3ccc4[nH]ncc4c3Cl)n2)ccc1F [IV-47] | < 1 | < 1 | < 1 |  | 1 to 15 |  |  |  | 
9 | CC1(C)CN(c2cccc(-c3nsc(Nc4ccc5[nH]ncc5c4Br)n3)c2)C(=O)O1 [IV-35] | < 1 | < 1 | < 1 |  | 1 to 15 |  |  |  | 
10 | O=C(Nc1cccnc1)c1cccc(-c2nsc(Nc3ccc4[nH]ncc4c3Cl)n2)c1 [IV-65] | < 1 | < 1 | < 1 | > 10 |  |  |  |  | 
11 | CC1(C)CCN(c2cccc(-c3nsc(Nc4ccc5[nH]ncc5c4Cl)n3)c2)C1=O [IV-56] | < 1 | < 1 | < 1 |  | 1 to 15 |  |  |  | 
12 | Cn1ccc(C(=O)Nc2cc(-c3nsc(Nc4ccc5[nH]ncc5c4Cl)n3)cn(C)c2=O)n1 [IV-10] | > 30 |  | < 1 | > 10 |  | > 10 |  |  | 
13 | O=C(Nc1cccc(-c2nsc(Nc3ccc4[nH]ncc4c3Cl)n2)c1)c1ccccn1 [IV-74] | < 1 | < 1 | < 1 |  | 1 to 15 |  |  |  | 
14 | Cn1cc(C(=O)Nc2cccc(-c3nsc(Nc4ccc5[nH]ncc5c4Cl)n3)c2)cn1 [IV-78] | < 1 | < 1 | < 1 | > 10 |  |  |  |  | 
15 | Cc1coc(-c2cc(-c3nsc(Nc4ccc5[nH]ncc5c4Cl)n3)ccn2)n1 [IV-59] | > 30 | < 1 | < 1 | > 10 |  |  |  |  | 
16 | COc1ncc(C(=O)Nc2cccc(-c3nsc(Nc4ccc5[nH]ncc5c4Cl)n3)c2)cn1 [IV-70] | < 1 | < 1 | < 1 | > 10 |  |  |  |  | 
17 | CC(C)NC(=O)COc1cccc(-c2nsc(Nc3ccc4[nH]ncc4c3Cl)n2)c1 [IV-9] | < 1 | < 1 | < 1 |  | 1 to 15 |  |  |  | 
18 | Cc1cc(NC(=O)c2cn(C)cn2)cc(-c2nsc(Nc3ccc4[nH]ncc4c3Cl)n2)n1 [IV-26] | < 1 | < 1 | < 1 | > 10 |  |  |  |  | 
19 | Cc1cc(C(=O)Nc2cccc(-c3nsc(Nc4ccc5[nH]ncc5c4Cl)n3)c2)n[nH]1 [IV-76] | < 1 | < 1 | < 1 | > 10 |  |  |  |  | 

Row | Compound | IC50 ([1]; isolated enzyme assay) [µM] | IC50 ([2]; class symbols) [µM] | IC50 ([3]; isolated enzyme assay) [µM] | IC50 ([4]; numeric bound) [µM] | IC50 ([4]; class symbols) [µM] | IC50 ([2]; numeric bound) [µM] | IC50 ([1]; isolated enzyme) [µM] | IC50 [2, 5] [µM] | IC50 ([3]; isolated enzyme) [µM]
20 | O=C(NC1CCCC1)c1cc(-c2nsc(Nc3ccc4[nH]ncc4c3Cl)n2)ccc1F [IV-48] | < 1 | < 1 | < 1 |  | 1 to 15 |  |  |  | 
21 | Cc1cnc(-c2cc(-c3nsc(Nc4ccc5[nH]ncc5c4Cl)n3)cn(C)c2=O)o1 [IV-12] | < 1 | < 1 | < 1 | > 10 |  |  |  |  | 
22 | Cn1ccnc1C(=O)Nc1cccc(-c2nsc(Nc3ccc4[nH]ncc4c3Cl)n2)c1 [IV-73] | < 1 | < 1 | < 1 | > 10 |  |  |  |  | 
23 | CNC(=O)c1cccc(-c2nsc(Nc3ccc4[nH]ncc4c3Cl)n2)c1 [IV-107] | < 1 | < 1 | < 1 | > 10 |  |  |  |  | 
24 | Cn1ccc(C(=O)Nc2cccc(-c3nsc(Nc4ccc5[nH]ncc5c4Cl)n3)c2)n1 [IV-77] | < 1 | < 1 | < 1 | > 10 |  |  |  |  | 
25 | Cc1cc(NC(=O)c2ccnn2C)cc(-c2nsc(Nc3ccc4[nH]ncc4c3Cl)n2)n1 [IV-13] | < 1 |  | < 1 | > 10 |  | > 10 |  |  | 
26 | COc1cccc(C(=O)Nc2cc(-c3nsc(Nc4ccc5[nH]ncc5c4Cl)n3)ccn2)c1 [IV-64] | > 30 | < 1 | > 30 |  |  |  |  |  | 
27 | O=C(NC(CO)CO)c1cc(-c2nsc(Nc3ccc4[nH]ncc4c3Cl)n2)ccc1F [IV-21] | < 1 | 1 to 15 | < 1 |  |  |  |  |  | 
28 | Cc1nc(C)c(C(=O)Nc2cccc(-c3nsc(Nc4ccc5[nH]ncc5c4Cl)n3)c2)s1 [Compound A-11] |  |  |  |  |  |  | < 1 | < 1 | < 1
29 | Cc1cn2cccc(-c3nsc(Nc4ccc5[nH]ncc5c4Cl)n3)c2n1 [IV-89] | < 1 |  | < 1 |  |  | > 10 |  |  | 
30 | Cc1cnc(-c2cncc(-c3nsc(Nc4ccc5[nH]ncc5c4Cl)n3)c2)o1 [IV-103] | > 30 |  | > 30 |  |  | > 10 |  |  | 
31 | Cc1cc(NC(=O)c2cncs2)cc(-c2nsc(Nc3ccc4[nH]ncc4c3Cl)n2)n1 [IV-20] | < 1 |  | < 1 |  |  | > 10 |  |  | 
32 | Cc1coc(-c2cc(CO)cc(-c3nsc(Nc4ccc5[nH]ncc5c4Cl)n3)c2)n1 [IV-68] | < 1 | < 1 | < 1 |  |  |  |  |  | 
33 | Cc1cc(-c2nc(C)co2)cc(-c2nsc(Nc3ccc4[nH]ncc4c3Cl)n2)n1 [IV-105] | > 30 |  | > 30 |  |  | > 10 |  |  | 
34 | O=C(Nc1cncc(-c2nsc(Nc3ccc4[nH]ncc4c3Cl)n2)c1)c1cnco1 [IV-24] | > 30 |  | < 1 |  |  | > 10 |  |  | 
35 | Cn1cc(-c2nsc(Nc3ccc4[nH]ncc4c3Cl)n2)cc(NC(=O)c2ccccc2)c1=O [IV-39] | 1 to 15 | < 1 | < 1 |  |  |  |  |  | 
36 | Cc1cc(C(=O)Nc2cccc(-c3nsc(Nc4ccc5[nH]ncc5c4Cl)n3)c2)on1 [Compound A-18] |  |  |  |  |  |  | < 1 | < 1 | < 1
37 | COc1ccc(C(=O)Nc2cc(C)nc(-c3nsc(Nc4ccc5[nH]ncc5c4Cl)n3)c2)cc1 [IV-43] | > 30 | 1 to 15 | > 30 |  |  |  |  |  | 
